Laboratory results reported in the supplement of paper PMC10307832.

How the values were obtained:
Test in all cases: relative viability (nuclei count vs DMSO), 5 days (fraction); higher = more cells survive
Selisistat + Dasatinib = compound: C1CC(C2=C(C1)C3=C(N2)C=CC(=C3)Cl)C(=O)N [Selisistat] + Cc1nc(Nc2ncc(C(=O)Nc3c(C)cccc3Cl)s2)cc(N2CCN(CCO)CC2)n1 [Dasatinib] (partner 0.075 µM)
Outline: (§1)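 Cells from lung cancer lines were seeded into 1536-well plates and, one day later, dosed by pin tool. Treatments were either a single drug or a fixed dose of an anchor drug with five library-drug doses (not always all listed) in √10 steps. After 5 days, nuclei were stained in a one-step fixation (final 0.05% Triton X-100, 1% formaldehyde, 1 ug/ml Hoechst) and counted on 4× images, and relative viability is the treated-to-vehicle nuclei ratio, as the median of duplicate plates.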

Serdemetan + Trametinib = compound: c1ccc2c(CCNc3ccc(Nc4ccncc4)cc3)c[nH]c2c1 [Serdemetan] + CC(=O)Nc1cccc(-n2c(=O)n(C3CC3)c(=O)c3c(Nc4ccc(I)cc4F)n(C)c(=O)c(C)c32)c1 [Trametinib] (partner 0.02 µM)
Outline: as §1

Serdemetan + Foretinib = compound: c1ccc2c(CCNc3ccc(Nc4ccncc4)cc3)c[nH]c2c1 [Serdemetan] + COc1cc2c(Oc3ccc(NC(=O)C4(C(=O)Nc5ccc(F)cc5)CC4)cc3F)ccnc2cc1OCCCN1CCOCC1 [Foretinib] (partner 0.25 µM)
Outline: as §1

Serdemetan + Pictilisib = compound: c1ccc2c(CCNc3ccc(Nc4ccncc4)cc3)c[nH]c2c1 [Serdemetan] + CS(=O)(=O)N1CCN(Cc2cc3nc(-c4cccc5[nH]ncc45)nc(N4CCOCC4)c3s2)CC1 [Pictilisib] (partner 1 µM)
Outline: as §1

Row | Cell Line | relative viability (Selisistat + Dasatinib; first compound 0.4 µM) | relative viability (Selisistat + Dasatinib; first compound 1.265 µM) | relative viability (Selisistat + Dasatinib; first compound 4 µM) | relative viability (Selisistat + Dasatinib; first compound 12.65 µM) | relative viability (Selisistat + Dasatinib; first compound 40 µM) | relative viability (Serdemetan + Trametinib; first compound 0.04 µM) | relative viability (Serdemetan + Trametinib; first compound 0.1265 µM) | relative viability (Serdemetan + Trametinib; first compound 0.4 µM) | relative viability (Serdemetan + Trametinib; first compound 1.265 µM) | relative viability (Serdemetan + Trametinib; first compound 4 µM) | relative viability (Serdemetan + Foretinib; first compound 0.04 µM) | relative viability (Serdemetan + Foretinib; first compound 0.1265 µM) | relative viability (Serdemetan + Foretinib; first compound 0.4 µM) | relative viability (Serdemetan + Foretinib; first compound 1.265 µM) | relative viability (Serdemetan + Foretinib; first compound 4 µM) | relative viability (Serdemetan + Pictilisib; first compound 0.04 µM) | relative viability (Serdemetan + Pictilisib; first compound 0.1265 µM) | relative viability (Serdemetan + Pictilisib; first compound 0.4 µM) | relative viability (Serdemetan + Pictilisib; first compound 1.265 µM) | relative viability (Serdemetan + Pictilisib; first compound 4 µM)
1 | COR-L23 | 0.523 | 0.583 | 0.579 | 0.529 | 0.494 | 0.616 | 0.606 | 0.617 | 0.502 | 0.449 | 0.989 | 1.01 | 1.07 | 0.847 | 0.843 | 0.665 | 0.767 | 0.785 | 0.598 | 0.752
2 | ABC-1 | 0.553 | 0.469 | 0.589 | 0.588 | 0.509 |  |  |  |  |  | 0.855 | 1.08 | 0.766 | 0.604 | 0.418 | 0.674 | 0.673 | 0.616 | 0.367 | 0.294
3 | SW 900 | 0.664 | 0.409 | 0.641 | 0.496 | 0.791 | 0.636 | 0.63 | 0.874 | 0.8 | 0.519 | 0.79 | 0.552 | 0.928 | 0.687 | 0.821 |  |  |  |  | 
4 | NCI-H838 | 0.273 | 0.293 | 0.263 | 0.279 | 0.285 | 0.47 | 0.538 | 0.555 | 0.526 | 0.575 | 1.03 | 0.983 | 1.02 | 0.951 | 1.09 | 0.395 | 0.508 | 0.507 | 0.438 | 0.549
5 | NCI-H1648 |  |  |  |  |  |  | 0.534 | 0.393 | 0.317 | 0.296 |  |  |  |  |  |  |  |  |  | 
6 | A549 |  |  |  |  |  |  |  |  |  |  | 0.964 | 0.969 | 1.02 | 0.627 | 0.177 | 0.537 | 0.558 | 0.517 | 0.264 | 0.262
7 | A-427 | 0.744 | 0.657 | 0.584 | 0.752 | 0.772 | 0.699 | 0.732 | 0.877 | 0.698 | 0.506 | 1.01 | 0.933 | 1.1 | 0.778 | 0.469 | 0.787 | 0.704 | 0.607 | 0.49 | 0.599
8 | NCI-H1792 | 0.806 | 0.805 |  | 0.677 | 0.498 | 0.401 | 0.458 | 0.304 | 0.248 | 0.142 |  |  |  |  |  | 0.278 | 0.274 | 0.283 | 0.242 | 0.145
9 | LCLC-97TM1 | 0.8 | 0.887 |  | 0.889 | 0.944 | 0.204 | 0.193 | 0.177 | 0.167 | 0.171 | 0.935 | 0.899 | 0.918 |  | 0.767 | 0.214 | 0.22 | 0.183 | 0.143 | 0.124
10 | NCI-H1703 |  |  |  |  |  |  |  |  |  |  | 0.335 | 0.338 | 0.383 | 0.289 | 0.341 | 0.213 | 0.278 | 0.3 | 0.271 | 0.232
